Source: ChEMBL document CHEMBL4725412, “Augmenting the Activity of Macrolide Adjuvants against Acinetobacter baumannii” (2020)
The source made the active and inactive calls. No cut-off for these calls is given here.

Tests used:
Acinetobacter baumannii [1] = experiment: Potentiation of clarithromycin-induced antibacterial activity against Acinetobacter baumannii AB5075 assessed as clarithromycin MIC at 5 uM incubated for 16 hrs by broth microdilution method (reference value: […] ug/ml); type: functional
Acinetobacter baumannii [2] = experiment: Potentiation of clarithromycin-induced antibacterial activity against Acinetobacter baumannii AB5075 assessed as clarithromycin MIC at 7.5 uM incubated for 16 hrs by broth microdilution method (reference value: […] ug/ml); type: functional
Acinetobacter baumannii [3] = experiment: Potentiation of clarithromycin-induced antibacterial activity against Acinetobacter baumannii AB5075 assessed as fold reduction in clarithromycin MIC at 5 uM incubated for 16 hrs in presence of clarithromycin by broth microdilution method; type: functional
Acinetobacter baumannii [4] = experiment: Potentiation of clarithromycin-induced antibacterial activity against Acinetobacter baumannii AB5075 assessed as fold reduction in clarithromycin MIC at 7.5 uM incubated for 16 hrs in presence of clarithromycin broth microdilution method; type: functional
Acinetobacter baumannii [5] = experiment: Antibacterial activity against Acinetobacter baumannii AB5075 assessed as reduction in microbial growth incubated for 16 hrs by broth microdilution method; type: functional
Acinetobacter baumannii [6] = experiment: Potentiation of clarithromycin-induced antibacterial activity against Acinetobacter baumannii AB5075 assessed as fold reduction in clarithromycin MIC at 30 uM incubated for 16 hrs in presence of clarithromycin by broth microdilution method; type: functional
Acinetobacter baumannii [7] = experiment: Potentiation of clarithromycin-induced antibacterial activity against Acinetobacter baumannii AB5075 assessed as clarithromycin MIC at […] incubated for 16 hrs by broth microdilution method (reference value: […] ug/ml); type: functional; details: dose 30 µM
Acinetobacter baumannii [8] = experiment: Potentiation of clarithromycin-induced antibacterial activity against Acinetobacter baumannii AB5075 assessed as clarithromycin MIC at 20 uM incubated for 16 hrs by broth microdilution method (reference value: […] ug/ml); type: functional
Acinetobacter baumannii [9] = experiment: Potentiation of clarithromycin-induced antibacterial activity against Acinetobacter baumannii AB5075 assessed as clarithromycin MIC at 10 uM incubated for 16 hrs by broth microdilution method (reference value: […] ug/ml); type: functional
Acinetobacter baumannii [10] = experiment: Potentiation of Colistin-induced Acinetobacter baumannii AB5075 assessed as Colistin MIC at 30 uM by broth microdilution method; type: functional, organism-based
Acinetobacter baumannii [11] = experiment: Potentiation of clarithromycin-induced antibacterial activity against Acinetobacter baumannii AB5075 assessed as fold reduction in clarithromycin MIC at 10 uM incubated for 16 hrs in presence of clarithromycin by broth microdilution method; type: functional
Acinetobacter baumannii [12] = experiment: Potentiation of clarithromycin-induced antibacterial activity against Acinetobacter baumannii AB5075 assessed as fold reduction in clarithromycin MIC at 20 uM incubated for 16 hrs in presence of clarithromycin by broth microdilution method; type: functional
Acinetobacter baumannii [13] = experiment: Potentiation of clarithromycin-induced antibacterial activity against Acinetobacter baumannii AB5075 assessed as clarithromycin MIC at 15 uM incubated for 16 hrs by broth microdilution method (reference value: […] ug/ml); type: functional
Acinetobacter baumannii [14] = experiment: Antibacterial activity against Acinetobacter baumannii AB5075 assessed as reduction in microbial growth by CLSI based microdilution method; type: functional
Acinetobacter baumannii [15] = experiment: Potentiation of clarithromycin-induced antibacterial activity against Acinetobacter baumannii AB5075 assessed as clarithromycin MIC at 10 uM by CLSI based microdilution method (reference value: […] ug/ml); type: functional
Acinetobacter baumannii [16] = experiment: Potentiation of clarithromycin-induced antibacterial activity against Acinetobacter baumannii AB5075 assessed as clarithromycin MIC at 30 uM by CLSI based microdilution method (reference value: […] ug/ml); type: functional
Acinetobacter baumannii [17] = experiment: Potentiation of clarithromycin-induced antibacterial activity against Acinetobacter baumannii AB5075 assessed as assessed as fold reduction in clarithromycin MIC at 30 uM by CLSI based microdilution method; type: functional
Acinetobacter baumannii [18] = experiment: Potentiation of clarithromycin-induced antibacterial activity against Acinetobacter baumannii AB5075 assessed as assessed as fold reduction in clarithromycin MIC at 10 uM by CLSI based microdilution method; type: functional

SMILES	MIC (Acinetobacter baumannii [5])	fold change (FC) (Acinetobacter baumannii [6])	MIC (Acinetobacter baumannii [7])	MIC (Acinetobacter baumannii [8])	MIC (Acinetobacter baumannii [9])	fold change (FC) (Acinetobacter baumannii [11])	further results
Cl.Nc1nc(-c2ccc(NC(=O)Nc3cc(Cl)cc(Cl)c3)cc2)c[nH]1	25 µM	–	–	–	–	–	MIC (Acinetobacter baumannii [1]): 8 µg/mL; MIC (Acinetobacter baumannii [2]): 0.5 µg/mL; fold change (FC) (Acinetobacter baumannii [3]): 4; fold change (FC) (Acinetobacter baumannii [4]): 64
Nc1nc(-c2ccc(NC(=O)c3cccc(Br)c3)cc2)c[nH]1	≥ 200 µM	–	–	–	–	–	–
Cl.Nc1ncc(-c2ccc(NC(=O)c3cc(F)cc(F)c3)cc2)[nH]1	≥ 200 µM	8	4 µg/mL	–	–	–	–
Nc1nc(-c2ccc(NC(=O)c3ccccc3)cc2)c[nH]1	≥ 200 µM	–	–	–	–	–	–
Nc1ncc(-c2ccc(NC(=O)c3ccc(Br)cc3F)cc2)[nH]1	≥ 200 µM	–	–	16 µM	32 µM	–	Activity (Acinetobacter baumannii [10]): inactive
COc1cc(-c2c[nH]c(N)n2)ccc1NC(=O)c1cc(Cl)cc(Cl)c1.Cl	100 µM	64	0.5 µg/mL	4 µg/mL	16 µg/mL	2	fold change (FC) (Acinetobacter baumannii [12]): 8
Nc1nc(-c2ccc(NC(=O)c3ccc(Cl)c(C(F)(F)F)c3)cc2)c[nH]1	100 µM	–	–	–	2 µM	–	–
Nc1nc(-c2ccc(NC(=O)c3cccc(Cl)c3)cc2)c[nH]1	≥ 200 µM	–	–	4 µM	16 µM	–	–
Nc1ncc(-c2ccc(NC(=O)c3ccc(I)cc3)cc2)[nH]1	≥ 200 µM	–	–	–	–	–	–
Cl.Nc1ncc(-c2ccc(NC(=O)c3ccc(Cl)c(Cl)c3)cc2)[nH]1	100 µM	64	–	0.5 µM	4 µM	–	–
Cl.Nc1nc(-c2ccc(NC(=O)c3cc(C(F)(F)F)cc(C(F)(F)F)c3)cc2)c[nH]1	50 µM	–	–	–	–	–	MIC (Acinetobacter baumannii [13]): 8 µg/mL
Nc1nc(-c2ccc(NC(=O)c3ccc(Cl)cc3)cc2)c[nH]1	≥ 200 µM	–	–	4 µM	16 µM	–	–
Cc1cc(-c2c[nH]c(N)n2)ccc1NC(=O)c1cc(Cl)cc(Cl)c1.Cl	> 200 µM	64	–	1 µg/mL	16 µg/mL	2	fold change (FC) (Acinetobacter baumannii [12]): 32
Cl.Nc1nc(-c2ccc(NC(=O)c3cc(Cl)cc(Cl)c3)cc2Cl)c[nH]1	> 200 µM	64	0.5 µg/mL	0.5 µg/mL	8 µg/mL	4	fold change (FC) (Acinetobacter baumannii [12]): 64
Nc1nc(-c2ccc(NC(=O)c3cccc(F)c3)cc2)c[nH]1	≥ 200 µM	–	–	–	–	–	–
Nc1ncc(-c2ccc(NC(=O)c3cc(Br)cc(Br)c3)cc2)[nH]1	–	–	–	–	–	–	MIC (Acinetobacter baumannii [14]): 100 µM; MIC (Acinetobacter baumannii [15]): 2 µg/mL; MIC (Acinetobacter baumannii [16]): 0.25 µg/mL; fold change (FC) (Acinetobacter baumannii [17]): 128; fold change (FC) (Acinetobacter baumannii [18]): 16
Cl.Nc1nc(-c2ccc(NC(=O)c3ccc(C(F)(F)F)c(Cl)c3)cc2F)c[nH]1	50 µM	–	–	–	8 µg/mL	4	MIC (Acinetobacter baumannii [2]): 16 µg/mL; fold change (FC) (Acinetobacter baumannii [4]): 2; MIC (Acinetobacter baumannii [13]): 0.25 µg/mL
Cl.Nc1nc(-c2c(F)cc(NC(=O)c3cc(Cl)cc(Cl)c3)cc2F)c[nH]1	–	–	4 µg/mL	8 µg/mL	–	2	–
Cl.Nc1nc(-c2ccc(NC(=O)c3cc(Cl)cc(Cl)c3)c(F)c2)c[nH]1	> 200 µM	4	16 µg/mL	–	–	–	–
Cl.Nc1nc(-c2ccc(NC(=O)c3cc(Br)cc(Br)c3)cc2F)c[nH]1	> 200 µM	16	2 µg/mL	8 µg/mL	16 µg/mL	2	fold change (FC) (Acinetobacter baumannii [12]): 4
